Laboratory results from ChEMBL document CHEMBL5390237, “Discovery of Selective Histone Deacetylase 1 and 2 Inhibitors: Screening of a Focused Library Constructed by Click Chemistry, Kinetic Binding Analysis, and Biological Evaluation” (J Med Chem, 2023).

What was measured:
Histone deacetylase 2 [1] = molecular target: T1, Histone deacetylase 2 (Homo sapiens, UniProt Q92769); conditions: Sf9, time 60.0 min
Histone deacetylase 2 [2] = molecular target: T1, Histone deacetylase 2; conditions: Sf9, time 60.0 min; remark: listed apart in the source

T1 sequence (Q92769 whole entry): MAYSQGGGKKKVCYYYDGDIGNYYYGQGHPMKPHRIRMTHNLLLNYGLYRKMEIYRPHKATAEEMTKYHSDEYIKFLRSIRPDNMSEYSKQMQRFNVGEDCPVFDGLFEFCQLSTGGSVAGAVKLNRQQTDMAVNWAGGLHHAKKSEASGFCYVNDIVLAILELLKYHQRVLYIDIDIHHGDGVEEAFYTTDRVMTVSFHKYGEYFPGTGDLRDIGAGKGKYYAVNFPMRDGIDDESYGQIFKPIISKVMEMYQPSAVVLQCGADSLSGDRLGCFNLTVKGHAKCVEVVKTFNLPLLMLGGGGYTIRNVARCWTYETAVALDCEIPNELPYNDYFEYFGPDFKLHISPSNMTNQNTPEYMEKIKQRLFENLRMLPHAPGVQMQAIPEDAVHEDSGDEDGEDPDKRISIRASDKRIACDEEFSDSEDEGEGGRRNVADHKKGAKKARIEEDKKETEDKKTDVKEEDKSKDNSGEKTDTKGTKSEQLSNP

Nc1ccccc1NC(=O)c1ccc(CNC(=O)OCc2cccnc2)cc1
ka (Histone deacetylase 2 [1]): 7670 M⁻¹ s⁻¹ | Kdiss (Histone deacetylase 2 [2]): 5e-05 s⁻¹
